Assay results taken from ChEMBL document CHEMBL5725343, “Amino-substituted isothiazoles” (2017).

What was measured:
[1] = target: T1, Dual specificity protein kinase TTK (Homo sapiens, UniProt P33981); experiment: Mps-1 Kinase Assay: N-terminally GST-tagged human full length recombinant Mps-1 kinase (purchased from Invitrogen, Karslruhe, Germany, cat. no PV4071) was used. As substrate for the kinase reaction a biotinylated peptide of the amino-acid sequence biotin-Ahx-PWDPDDADITEILG (C-terminus in amide form, purchased from Biosyntan GmbH, Berlin) was used. For the assay 50 nl of a 100-fold concentrated solution of the test compound in DMSO was pipetted into a black low volume 384 well microtiter plate (Greiner Bio-One, Frickenhausen, Germany), 2 ul of a solution of Mps-1 in assay buffer [0.1 mM sodium-ortho-vanadate, 10 mM MgCl2, 2 mM DTT, 25 mM Hepes pH 7.7, 0.05% BSA (w/v), 0.001% Pluronic F-127] were added and the mixture was incubated for 15 min at 22° C. to allow pre-binding of the test compounds to Mps-1 before the start of the kinase reaction. Then the kinase reaction was started by the addition of 3 ul of a solution of 16.7 uM adenosine-tri-phosphate (ATP, 16.7 uM=>final conc. in the 5 ul assay volume is 10 uM) and peptide substrate (1.67 uM=>final conc. in the 5 ul assay volume is 1 uM) in assay buffer and the resulting mixture was incubated for a reaction time of 60 min at 22° C. […]
T1 sequence (P33981 whole entry): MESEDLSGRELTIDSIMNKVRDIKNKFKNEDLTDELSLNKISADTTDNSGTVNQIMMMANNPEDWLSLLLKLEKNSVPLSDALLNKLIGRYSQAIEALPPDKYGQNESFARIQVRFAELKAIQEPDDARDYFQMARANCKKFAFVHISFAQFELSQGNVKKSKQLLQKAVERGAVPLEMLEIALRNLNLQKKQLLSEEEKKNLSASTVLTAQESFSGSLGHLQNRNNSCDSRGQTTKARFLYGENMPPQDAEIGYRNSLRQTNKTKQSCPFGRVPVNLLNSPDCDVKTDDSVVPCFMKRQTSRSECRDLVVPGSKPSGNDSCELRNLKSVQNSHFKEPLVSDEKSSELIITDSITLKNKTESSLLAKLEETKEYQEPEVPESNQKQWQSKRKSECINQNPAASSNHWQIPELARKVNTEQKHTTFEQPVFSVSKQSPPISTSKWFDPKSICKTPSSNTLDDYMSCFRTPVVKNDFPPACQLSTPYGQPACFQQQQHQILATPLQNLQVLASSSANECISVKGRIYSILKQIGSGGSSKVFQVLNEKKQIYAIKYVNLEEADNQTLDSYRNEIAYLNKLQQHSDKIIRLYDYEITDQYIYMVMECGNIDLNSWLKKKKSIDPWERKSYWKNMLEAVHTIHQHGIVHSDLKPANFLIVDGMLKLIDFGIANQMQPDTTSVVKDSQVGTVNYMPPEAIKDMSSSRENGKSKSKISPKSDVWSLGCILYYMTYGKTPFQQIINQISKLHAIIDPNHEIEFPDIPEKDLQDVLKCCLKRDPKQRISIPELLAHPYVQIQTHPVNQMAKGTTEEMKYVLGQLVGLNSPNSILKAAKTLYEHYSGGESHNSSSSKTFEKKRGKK

[2] = target: Mitotic checkpoint serine/threonine-protein kinase BUB1 (Homo sapiens, UniProt O43683); experiment: Bub1 Kinase Assay: Recombinant fusion proteins of GST and human CDK2 and of GST and human CycE, expressed in insect cells (Sf9) and purified by Glutathion-Sepharose affinity chromatography, were purchased from ProQinase GmbH (Freiburg, Germany). As substrate for the kinase reaction biotinylated peptide biotin-Ttds-YISPLKSPYKISEG (C-terminus in amid form) was used which can be purchased e.g. form the company JERINI peptide technologies (Berlin, Germany). For the assay 50 nl of a 100 fold concentrated solution of the test compound in DMSO was pipetted into a black low volume 384 well microtiter plate (Greiner Bio-One, Frickenhausen, Germany), 2 ul of a solution of CDK2/CycE in aqueous assay buffer [50 mM Tris/HCl pH 8.0, 10 mM MgCl2, 1.0 mM dithiothreitol, 0.1 mM sodium ortho-vanadate, 0.01% (v/v) Nonidet-P40 (Sigma)] were added and the mixture was incubated for 15 min at 22° C. to allow pre-binding of the test compounds to the enzyme before the start of the kinase reaction. Then the kinase reaction was started by the addition of 3 ul of a solution of adenosine-tri-phosphate (ATP, 16.7 uM=>final conc. in the 5 ul assay volume is 10 uM) and substrate (1.25 uM=>final conc. in the 5 ul assay volume is 0.75 uM) in assay buffer and the resulting mixture was incubated for a reaction time of 25 min at 22° C. […]
Chain of Mitotic checkpoint serine/threonine-protein kinase BUB1 (O43683 whole entry, the tested form may be a part): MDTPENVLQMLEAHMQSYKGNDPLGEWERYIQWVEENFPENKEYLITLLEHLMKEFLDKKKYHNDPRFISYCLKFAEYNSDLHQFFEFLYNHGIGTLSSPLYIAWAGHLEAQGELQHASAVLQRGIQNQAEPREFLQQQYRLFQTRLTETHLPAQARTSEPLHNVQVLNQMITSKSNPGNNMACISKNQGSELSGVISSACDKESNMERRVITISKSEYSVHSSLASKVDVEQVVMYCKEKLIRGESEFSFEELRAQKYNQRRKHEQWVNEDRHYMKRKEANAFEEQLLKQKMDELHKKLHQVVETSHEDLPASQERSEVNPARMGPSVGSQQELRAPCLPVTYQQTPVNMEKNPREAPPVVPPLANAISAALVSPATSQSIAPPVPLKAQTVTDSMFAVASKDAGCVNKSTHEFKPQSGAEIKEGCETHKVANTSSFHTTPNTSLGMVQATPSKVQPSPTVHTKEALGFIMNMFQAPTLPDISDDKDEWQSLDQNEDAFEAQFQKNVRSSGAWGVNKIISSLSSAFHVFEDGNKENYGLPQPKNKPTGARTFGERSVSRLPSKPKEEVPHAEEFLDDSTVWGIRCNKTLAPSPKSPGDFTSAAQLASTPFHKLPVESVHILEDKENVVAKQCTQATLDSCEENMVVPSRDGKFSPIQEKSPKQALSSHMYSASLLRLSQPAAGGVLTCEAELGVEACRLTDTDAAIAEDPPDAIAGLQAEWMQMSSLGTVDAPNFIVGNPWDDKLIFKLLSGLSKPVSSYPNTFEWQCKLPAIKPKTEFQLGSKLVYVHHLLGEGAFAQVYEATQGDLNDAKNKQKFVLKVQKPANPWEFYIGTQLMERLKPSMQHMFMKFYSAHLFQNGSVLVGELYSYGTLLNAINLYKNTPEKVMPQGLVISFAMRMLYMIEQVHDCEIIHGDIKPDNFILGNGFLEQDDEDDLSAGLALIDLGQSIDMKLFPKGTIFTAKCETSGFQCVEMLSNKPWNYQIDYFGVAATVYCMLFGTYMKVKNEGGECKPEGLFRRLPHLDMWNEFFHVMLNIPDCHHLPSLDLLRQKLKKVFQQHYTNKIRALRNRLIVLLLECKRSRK

[3] = […]: N-terminally His6-tagged recombinant catalytic domain of human Bub1 (amino acids 704-1085), expressed in insect cells (Hi5) and purified by Ni-NTA affinity chromatography and subsequent size exclusion chromatography, was used as enzyme. As substrate for the kinase reaction the biotinylated peptide biotin-Ahx-VLLPKKSFAEPG (C-terminus in amid form) was used which can be purchased e.g. form the company Biosyntan (Berlin, Germany). For the assay 50 nl of a 100 fold concentrated solution of the test compound in DMSO was pipetted into a black low volume 384 well microtiter plate (Greiner Bio-One, Frickenhausen, Germany), 2 ul of a solution of Bub1 in aqueous assay buffer [50 mM Tris/HCl pH 7.5, 10 mM magnesium chloride (MgCl2), 200 mM potassium chloride (KCl), 1.0 mM dithiothreitol (DTT), 0.1 mM sodium ortho-vanadate, 1% (v/v) glycerol, 0.01% (w/v) bovine serum albumine (BSA), 0.005% (v/v) Trition X-100 (Sigma), 1x Complete EDTA-free protease inhibitor mixture (Roche)] were added and the mixture was incubated for 15 min at 22° C. to allow pre-binding of the test compounds to the enzyme before the start of the kinase reaction. […]

Row | SMILES | IC50 [1] | IC50 [2] | IC50 [3]
1 | Cc1nsc(Nc2cncc(-n3cccn3)n2)c1C(=O)Nc1ccc(F)c(F)c1 | > 20 µM | 15 µM | 
2 | Cc1nsc(Nc2cc(C#N)ccn2)c1C(=O)Nc1ccc(Oc2ccc(F)cc2F)nc1 | > 20 µM | > 20 µM | 
3 | COc1ccc(Oc2ccc(CC(=O)c3c(C)nsc3Nc3cc(C#N)ccn3)cn2)cc1 |  |  | > 20 µM
